Measured values published in PubChem BioAssay (NCI).
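These data come from cells grown in 96-well plates and exposed to compound for 48 hours at five concentrations. TGI is the concentration that stops growth completely.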

Legend:
Test in all cases: NCI tumour cell line growth inhibition, 48 h
[1] = system: COLO 205 colon
[2] = system: HCC-2998 colon
[3] = system: HOP-62 NSCLC
[4] = system: EKVX NSCLC
[5] = system: OVCAR-3 ovarian
[6] = system: RPMI-8226 leukemia
[7] = system: IGROV1 ovarian
[8] = system: LOX IMVI melanoma
[9] = system: NCI-H23 lung
[10] = system: SNB-19 CNS
[11] = system: SK-MEL-5 melanoma
[12] = system: SK-MEL-2 melanoma
[13] = system: SW-620 colon
[14] = system: OVCAR-8 ovarian
[15] = system: HOP-92 NSCLC
[16] = system: HL-60(TB) leukemia
[17] = system: A549 NSCLC
[18] = system: TK-10 renal
[19] = system: NCI-H226 lung
[20] = system: ACHN renal
[21] = system: M19-MEL melanoma
[22] = system: MOLT-4 leukemia
[23] = system: MALME-3M melanoma
[24] = system: HCT-116 colon
[25] = system: NCI-H522 lung
[26] = system: A498 renal
[27] = system: SNB-75 CNS
[28] = system: OVCAR-4 ovarian
[29] = system: U251 CNS
[30] = system: OVCAR-5 ovarian
[31] = system: DLD-1 colon
[32] = system: SK-OV-3 ovarian
[33] = system: HOP-18 NSCLC
[34] = system: 786-0 renal
[35] = system: XF 498 CNS
[36] = system: UACC-62 melanoma
[37] = system: LXFL 529 NSCLC
[38] = system: SF-295 CNS
[39] = system: CAKI-1 renal
[40] = system: SF-539 CNS
[41] = system: RXF 393 renal
[42] = system: SF-268 CNS
[43] = system: KM20L2 colon
[44] = system: CCRF-CEM leukemia
[45] = system: NCI-H460 lung
[46] = system: M14 melanoma
[47] = system: HT29 colon
[48] = system: SK-MEL-28 melanoma
[49] = system: RXF-631 renal
[50] = system: KM12 colon
[51] = system: K-562 leukemia
[52] = system: DMS 114 small cell lung
[53] = system: DMS 273 small cell lung
[54] = system: SN12C renal
[55] = system: HCT-15 colon
[56] = system: SNB-78 CNS
[57] = system: UO-31 renal
[58] = system: UACC-257 melanoma
[59] = system: SR leukemia

Measured: TGI

O=C1CCC(O)=C1O
> 100 µM: [1] | [2] | [3] | [4] | [5] | [6] | [7] | [8] | [9] | [10] | [11] | [12] | [13] | [14] | [15] | [16] | [17] | [18] | [19] | [20] | [21] | [22] | [23] | [24] | [25] | [26] | [27] | [28] | [29] | [30] | [31] | [32] | [33] | [34] | [35] | [36] | [37] | [38] | [39] | [40] | [41] | [42] | [43] | [44] | [45] | [46] | [47] | [48] | [49] | [50] | [51] | [52] | [53] | [54] | [55]

Cc1nn(-c2ccccc2)c(-c2ccccc2[N+](=O)[O-])c1CC#N
> 100 µM: [1] | [2] | [3] | [4] | [5] | [6] | [7] | [8] | [9] | [10] | [11] | [12] | [14] | [15] | [16] | [17] | [56] | [18] | [20] | [21] | [22] | [23] | [25] | [57] | [27] | [28] | [30] | [32] | [34] | [35] | [36] | [37] | [38] | [39] | [40] | [58] | [41] | [42] | [43] | [44] | [45] | [46] | [48] | [49] | [50] | [51] | [52] | [53] | [54] | [55]

CCN(CC)C1CC(n2cc(C)c(=O)[nH]c2=O)OC1CO (centres undefined)
> 100 µM: [1] | [2] | [3] | [6] | [7] | [9] | [12] | [15] | [16] | [56] | [19] | [21] | [22] | [23] | [24] | [25] | [26] | [57] | [27] | [28] | [31] | [32] | [34] | [35] | [36] | [37] | [39] | [40] | [42] | [59] | [44] | [45] | [46] | [48] | [49] | [51] | [52] | [53] | [54]
